# Results taken from patent US20250295083A1, “METHODS FOR PRODUCING AN ORGANOGENIC CALLUS AND COMPOSITIONS, SYSTEMS, AND METHODS RELATING THERETO” (Pairwise Plants Services, Inc., priority 2022, published 2025).
# “Also recorded” adds a separate entry of the source.
# System: cross sections of the stems (including nodes) of the lateral shoots, cherry variety Sweetheart
# Test: Callus induction from cut stem cross sections (including nodes) cultured on media
# Type: cell-based, sweet cherry (Prunus avium)
# Conditions: 24° C., 8 weeks in the dark
# Procedure: The cherry variety, Sweetheart, was grown in a greenhouse and stem tissue was collected. The stem tissue was grown in vitro on propagation media (Table 1) at 25° C., 40 μM light with a 16 hour photoperiod until lateral shoots began to emerge. The stem tissue with lateral shoots were grown on the propagation media for no more than 10 days and were collected by day 10.
# Leaves and petioles were removed from the lateral shoots and cross sections of the stems (including nodes) of the lateral shoots were cut. The cross sections of the stems were about 0.5 mm wide. For the purpose of inducing callus formation, the cut material was then placed onto either Garin media as described in Garin, E., et al. (1997). Plant cell, tissue and organ culture, 48(2), 83-91, media comprising 2 mg TDZ, media comprising 5 mg TDZ, or media comprising 10 mg TDZ and cultured at 24° C. for 8 weeks in the dark. The plant material was moved to fresh media approximately every three weeks. If endophyte growth was noted as the experiment was progressing, then the media was supplemented with 200 mg/L cefoxatime. Approximately 149 nodes were processed and cultured on the media containing 5 mg TDZ. Approximately 149 nodes were processed and cultured on the media containing 10 mg TDZ. Approximately 324 nodes were processed and cultured on the Garin media. The lateral shoots were cultured for a total of 8 weeks on the medias described above and then observed for the formation of callus.
smiles,measurement,setting,value
"O=C(Nc1ccccc1)Nc1cnns1 [TDZ, thidiazuron]",Observations (callus formation),media comprising 2 mg TDZ,Small amount of callus formed
same,Observations (callus formation),media comprising 5 mg TDZ,Moderate amount of callus but much
same,Observations (callus formation),media comprising 10 mg TDZ (10 mg/L),many more of the tissues developing callus; also recorded: along with considerably more mass being
same,tissues forming callus,media comprising 10 mg TDZ,Nearly 100% of tissues forming callus
